In PubChem BioAssay AID328 (DTP/NCI, 2004):
Inconclusive results and toxic doses are left out. How the source made its calls: active means survival T/C of 150% or more; inactive means T/C below 125% in these data. Residues, ends and D or L forms follow the SMILES beside them. *: point of attachment. Cbz = O=C(OCc1ccccc1)*

System: BDF1 mice, P388 leukemia ip, median survival T/C
Assay: NCI In Vivo Anticancer Drug Screen. Data for tumor model P388 Leukemia (intraperitoneal) in B6D2F1 (BDF1) mice
Conditions: endpoint: median survival time, higher = longer survival
Procedure, shortened: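 Reported as T/C, where T is the survival measurement in dosed animals and C the same measurement in vehicle controls.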

[1] = dose: 50.0 mg/kg/injection, schedule: Q01DX009 (ip), vehicle: Klucel (hydroxypropylcellulose) (HPC)
[2] = dose: 100.0 mg/kg/injection, schedule: Q04DX003 (ip), vehicle: Klucel (hydroxypropylcellulose) (HPC)
[3] = dose: 200.0 mg/kg/injection, schedule: Q04DX003 (ip), vehicle: Klucel (hydroxypropylcellulose) (HPC)
[4] = dose: 400.0 mg/kg/injection, schedule: Q04DX003 (ip), vehicle: Klucel (hydroxypropylcellulose) (HPC)
[5] = dose: 100.0 mg/kg/injection, schedule: Q01DX009 (ip), vehicle: Klucel (hydroxypropylcellulose) (HPC)
[6] = dose: 200.0 mg/kg/injection, schedule: Q01DX009 (ip), vehicle: Klucel (hydroxypropylcellulose) (HPC)

Measured: T/C

O=C(O)C(O)C(O)C(O)C(O)C(=O)O (configuration not stated)
inactive: dose: 50.0 mg/kg/injection, schedule: Q01DX010 (ip), vehicle: saline 100 % of control | dose: 100.0 mg/kg/injection, schedule: Q01DX010 (ip), vehicle: saline 109 % of control | dose: 200.0 mg/kg/injection, schedule: Q01DX010 (ip), vehicle: saline 100 % of control | dose: 400.0 mg/kg/injection, schedule: Q01DX010 (ip), vehicle: saline 104 % of control | dose: 600.0 mg/kg/injection, schedule: Q01DX010 (ip), vehicle: saline 88 % of control | dose: 750.0 mg/kg/injection, schedule: Q01DX010 (ip), vehicle: saline 88 % of control

CO[C@H]1C[C@H](O[C@H]2CC[C@@]3(C)[C@H](CC[C@@H]4[C@@H]3CC[C@]3(C)[C@@H](C5=CC(=O)OC5)CC[C@]43O)C2)O[C@H](C)[C@H]1O
inactive: dose: 4.3 mg/kg/injection, schedule: Q01DX009 (ip), vehicle: saline with Tween-80 99 % of control | dose: 6.4 mg/kg/injection, schedule: Q01DX009 (ip), vehicle: saline with Tween-80 107 % of control | dose: 9.6 mg/kg/injection, schedule: Q01DX009 (ip), vehicle: saline with Tween-80 107 % of control

CC1=CCC(CC(N)=O)C1(C)C (configuration not stated)
inactive: dose: 100.0 mg/kg/injection, schedule: Q01DX001 (ip), vehicle: saline with Tween-80 105 % of control | dose: 200.0 mg/kg/injection, schedule: Q01DX001 (ip), vehicle: saline with Tween-80 103 % of control | dose: 400.0 mg/kg/injection, schedule: Q01DX001 (ip), vehicle: saline with Tween-80 92 % of control

O=C1c2ccccc2C(=O)N1N1C(=O)c2ccccc2C1=O
inactive: dose: 100.0 mg/kg/injection, schedule: Q01DX009 (ip), vehicle: saline with Tween-80 100 % of control | dose: 200.0 mg/kg/injection, schedule: Q01DX009 (ip), vehicle: saline with Tween-80 90 % of control | dose: 400.0 mg/kg/injection, schedule: Q01DX009 (ip), vehicle: saline with Tween-80 100 % of control

Nc1nnc(N)s1
inactive: dose: 100.0 mg/kg/injection, schedule: Q04DX003 (ip), vehicle: saline sonified 100 % of control | dose: 200.0 mg/kg/injection, schedule: Q04DX003 (ip), vehicle: saline sonified 100 % of control | dose: 400.0 mg/kg/injection, schedule: Q04DX003 (ip), vehicle: saline sonified 100 % of control

CCOC(=O)CNC(=O)C(CC(C)C)NC(=O)C1CCCN1C(=O)OCc1ccccc1 (stereo not drawn) (Cbz-Pro-Leu-Gly-OEt; configuration not given here)
inactive: dose: 12.5 mg/kg/injection, schedule: Q01DX009 (ip), vehicle: Klucel (hydroxypropylcellulose) (HPC) 124 % of control | dose: 25.0 mg/kg/injection, schedule: Q01DX009 (ip), vehicle: Klucel (hydroxypropylcellulose) (HPC) 89 % of control | [1] 95 % of control | [2] 87 % of control | [3] 91 % of control | [4] 87 % of control

O=C(O)c1ccc(C(=O)c2ccccc2C(=O)O)cc1
inactive: dose: 100.0 mg/kg/injection, schedule: Q01DX001 (ip), vehicle: Klucel (hydroxypropylcellulose) (HPC) 95 % of control | [5] 91 % of control | [2] 104 % of control | dose: 200.0 mg/kg/injection, schedule: Q01DX001 (ip), vehicle: Klucel (hydroxypropylcellulose) (HPC) 100 % of control | [6] 95 % of control | [3] 104 % of control | dose: 400.0 mg/kg/injection, schedule: Q01DX001 (ip), vehicle: Klucel (hydroxypropylcellulose) (HPC) 95 % of control | dose: 400.0 mg/kg/injection, schedule: Q01DX009 (ip), vehicle: Klucel (hydroxypropylcellulose) (HPC) 91 % of control | [4] 109 % of control

CSc1c(C)[nH]c2c(C)cccc12
inactive: dose: 50.0 mg/kg/injection, schedule: Q04DX002 (ip), vehicle: saline with Tween-80 100 % of control | dose: 100.0 mg/kg/injection, schedule: Q04DX002 (ip), vehicle: saline with Tween-80 100 % of control | dose: 200.0 mg/kg/injection, schedule: Q04DX002 (ip), vehicle: saline with Tween-80 105 % of control

CC(=O)Nc1cc(NC(C)=O)cc([N+](=O)[O-])c1
inactive: dose: 25.0 mg/kg/injection, schedule: Q04DX003 (ip), vehicle: saline 110 % of control | dose: 50.0 mg/kg/injection, schedule: Q04DX003 (ip), vehicle: saline 106 % of control | dose: 100.0 mg/kg/injection, schedule: Q04DX003 (ip), vehicle: saline 100 % of control | dose: 200.0 mg/kg/injection, schedule: Q04DX003 (ip), vehicle: saline 107 % of control | dose: 400.0 mg/kg/injection, schedule: Q04DX003 (ip), vehicle: saline 103 % of control

O=P(Cc1ccccc1)(C(O)c1ccccc1)C(O)c1ccccc1 (configuration not stated)
inactive: dose: 50.0 mg/kg/injection, schedule: Q04DX003 (ip), vehicle: Klucel (hydroxypropylcellulose) (HPC) 100 % of control | [2] 100 % of control | [3] 100 % of control

Clc1ccc(NC2=NCCN=C(Nc3ccc(Cl)c(Cl)c3)SS2)cc1Cl
inactive: [1] 100 % of control | [5] 92 % of control | [6] 88 % of control
